Consider 17 molecules from patent publication US6683096B2, “Indolylpiperidine derivatives as antihistaminic and antiallergic agents” (Almirall Prodesfarma, S.A., priority 1999, dated 2004).

One experiment deals with T1, histamine-H1 receptors (Cavia porcellus, UniProt P31389).
T1 construct: performed in guinea pig cerebellum membranes; from tissue; host or cells: guinea pig cerebellum membranes
T1 sequence (P31389 whole entry): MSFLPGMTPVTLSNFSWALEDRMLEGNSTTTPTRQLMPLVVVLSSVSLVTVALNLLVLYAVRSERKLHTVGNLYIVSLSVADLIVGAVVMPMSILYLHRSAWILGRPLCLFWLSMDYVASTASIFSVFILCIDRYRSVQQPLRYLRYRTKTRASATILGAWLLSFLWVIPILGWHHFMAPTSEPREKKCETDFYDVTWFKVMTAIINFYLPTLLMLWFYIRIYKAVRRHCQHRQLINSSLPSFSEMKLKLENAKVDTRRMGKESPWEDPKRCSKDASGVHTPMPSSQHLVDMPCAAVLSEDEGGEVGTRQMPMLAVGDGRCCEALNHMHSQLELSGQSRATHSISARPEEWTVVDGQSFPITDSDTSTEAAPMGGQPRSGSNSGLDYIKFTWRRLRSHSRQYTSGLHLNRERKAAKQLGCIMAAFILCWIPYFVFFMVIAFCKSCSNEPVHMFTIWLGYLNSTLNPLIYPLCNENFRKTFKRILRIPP
The experiment in a line: Histamine-H1 receptor binding assay ([3H]-mepyramine, guinea pig cerebellum membranes).
Conditions: not given
On the procedure:
(1) Histamine-H1 receptor binding assay
Briefly, the membrane suspensions (160 μg/ml) were incubated at 30° C. with 0.7 nM [^3H]- mepyramine and different concentrations of the test compounds in a final volume of 250 μl. Binding reactions were terminated by filtration after 30 min of incubation and the bound radioactivity was determined. The specific binding was measured in the presence of 10 μM of promethazine. The affinity of each test compound to the receptor was determined by using at least six different concentrations run in duplicate. IC50 values were obtained by non-linear regression by use of SAS on a DEC AXP computer.
As to `CCCCCn1cc(C2CCN(CCOCC(=O)O)CC2)c2ccccc21` [Example 38, {2-[4-(1-pentyl-1H-indol-3-yl)-piperidin-1-yl]-ethoxy}-acetic acid], the IC50 worked out at 174 nM.

Staying with this experiment, now noted: guinea pig cerebellum membranes, 0.7 nM [3H]-mepyramine; read-out: BINDING TO RECEPTOR H1 ( IC50 nM ).
`O=C(O)COCCN1CCN(C(c2ccccc2)c2ccc(Cl)cc2)CC1` (centres unmarked) [CETIRIZINE, reference compound]: the IC50 was 226 nM. With `O=C(O)c1ccccc1OCCN1CCC(c2cn(Cc3ccc(F)cc3)c3ccccc23)CC1` [Example 1, 2-(2-{4-[1-(4-fluoro-benzyl)-1H-indol-3-yl]-piperidin-1-yl}-ethoxy)-benzoic acid], the IC50 stood at 310 nM.

Turning to `CCOCCn1cc(C2CCN(CCCC(=O)O)CC2)c2ccccc21` [Example 3, 4-{4-[1-(2-ethoxy-ethyl)-1H-indol-3-yl]-piperidin-1-yl}-butyric acid], the IC50 was 347 nM. Still for that read-out and setting: the value for `CCOCCn1cc(C2CCN(CCOc3cccc(C(=O)O)c3)CC2)c2ccccc21` [Example 10] was 145 nM. Consider `CCCCCn1cc(C2CCN(CCCOc3ccccc3C(=O)O)CC2)c2ccccc21` [Example 15, 2-{3-[4-(1-pentyl-1H-indol-3-yl)-piperidin-1-yl]-propoxy}-benzoic acid], for which the IC50 was 88 nM. On the same count and under the same terms, the result for `CCOCCn1cc(C2CCN(CCCOc3cccc(C(=O)O)c3)CC2)c2ccccc21` [Example 19, 3-(3-{4-[1-(2-ethoxy-ethyl)-1H-indol-3-yl]-piperidin-1-yl}-propoxy)-benzoic acid] reads 89 nM; that for `CCOCCn1cc(C2CCN(CCc3ccc(C=CC(=O)O)cc3)CC2)c2ccccc21` [Example 32, 3-[4-(2-{4-[1-(2-ethoxy-ethyl)-1H-indol-3-yl]-piperidin-1-yl}-ethyl)-phenyl]-acrylic acid], 59 nM. In the case of `CCCCCn1cc(C2CCN(CCCC(O)c3ccc(C(C)(C)C(=O)O)cc3)CC2)c2ccccc21` (centres unmarked) [Example 34, 2-(4-{1-hydroxy-4-[4-(1-pentyl-1H-indol-3-yl)-piperidin-1-yl]-butyl}-phenyl)-2-methyl-propionic acid], the IC50 was 127 nM. In the case of `O=C(O)c1cccc(CN2CCC(c3c[nH]c4ccccc34)CC2)c1` [Example 54, 3-[4-(1H-indol-3-yl)-piperidin-1-ylmethyl]-benzoic acid], the IC50 is 106 nM. Take `CCOCCn1cc(C2CCN(Cc3cccc(C(=O)O)c3)CC2)c2ccccc21` [Example 66, 3-{4-[1-(2-ethoxy-ethyl)-1H-indol-3-yl]-piperidin-1-ylmethyl}-benzoic acid]: the IC50 turned out to be 248 nM.

Turning to `CCOCCn1cc(C2CCN(CCOc3cccc(F)c3C(=O)O)CC2)c2cccc(Br)c21` [Example 85, 2-(2-{4-[7-bromo-1-(2-ethoxy-ethyl)-1H-indol-3-yl]-piperidin-1-yl}-ethoxy)-6-fluoro-benzoic acid], the half-maximal inhibitory concentration (IC50) amounted to 152 nM.

In the case of `C=CCOCCn1cc(C2CCN(CCOc3ccccc3C(=O)O)CC2)c2ccccc21` [Example 134, 2-(2-{4-[1-(2-allyloxy-ethyl)-1H-indol-3-yl]-piperidin-1-yl}-ethoxy)-benzoic acid], the IC50 came out at 86 nM. Consider `CCOCCn1cc(C2CCN(CCOc3ccc(C(=O)O)cc3)CC2)c2ccccc21` [Example 137, 4-(2-{4-[1-(2-ethoxy-ethyl)-1H-indol-3-yl]piperidin-1-yl}-ethoxy)-benzoic acid], for which the IC50 was determined as 150 nM. On the same count and under the same terms, the result for `CCOCCn1cc(C2CCN(CCOc3ccc(C)cc3C(=O)O)CC2)c2cccc(Br)c21` [Example 143, 2-(2-{4-[7-bromo-1-(2-ethoxy-ethyl)-1H-indol-3-yl]-piperidin-1-yl}-ethoxy)-5-methyl-benzoic acid] reads 222 nM; that for `CCOCCn1cc(C2CCN(CCOc3ccc(C)cc3C(=O)O)CC2)c2cc(F)ccc21` [Example 145, 2-(2-{4-[1-(2-ethoxy-ethyl)-5-fluoro-1H-indol-3-yl]-piperidin-1-yl}-ethoxy)-5-methyl-benzoic acid], 116 nM; that for `CCOCCn1cc(C2CCN(CCC(=O)O)CC2)c2ccccc21` [Example 153, 3-{4-[1-(2-ethoxy-ethyl)-1H-indol-3-yl]-piperidin-1-yl}-propionic acid], 245 nM.
